Reference: US20090117176A1, “Anticancer Treatments” (Pharma Mar, S.A. Sociedad Unipersonal, priority 2004, published 2009)
Marks after values point to notes of the source that are not given here.

Experiments:
human tumour xenografts = details: xenografts including melanoma and ovarian and breast carcinoma; cited from earlier work
[1] = test system: sarcoma and breast and ovarian carcinoma; details: phase I, ET-743 alone; cited from earlier work
[2] = patients, infusion over 24-72 hr; cited from earlier work
[3] = Phase I trial combining PLD and trabectedin: pharmacokinetics of trabectedin; type: in vivo, human; details: for AUC∞ / Cl / Cmax / T1/2: mean; for Impact of concomitant PLD on the pharmacokinetics of trabectedin: preliminary analysis, versus historical control data of trabectedin alone
Protocol: (§1) A phase I trial combining PLD and trabectedin was performed. The objective of this study was to determine the maximum tolerated dose (MTD) of trabectidin in combination with PLD 30 mg/m^2 administered every 21 clays. Additional objectives were to evaluate the safety profile of this combination of drugs and to evaluate the pharmacokinetics of trabectidin and PDL when given in combination. The maximum tolerated dose (MTD) relates to the highest dose at which less than one third of the subjects in a dose-level cohort experienced dose-limiting toxicity (DLT).
(§2) We designed a dose finding trial with a fixed PLD dose of 30 mg/m^2 administered intravenously over one hour, followed immediately by one of six trabectedin doses (0.4, 0.6, 0.75, 0.9, 1.1, and 1.3 mg/m^2) administered intravenously over 3 hours. This treatment was repeated every 21 days.
Based on preliminary pharmacokinetic analysis, the values of trabectedin CL (systematic clearance after i.v. dose), t½ (half life) and Vss (apparent volume of distribution at steady state) are within the range observed when trabectedin is given alone (historical control data) (FIG. 1, Table 9),

[4] = Phase I dose escalation study of Doxorubicin (60 mg/m^2) in combination with ET-743; type: in vivo, human; details: in combination with Doxorubicin 60 mg/m^2, ET-743 over 3 hours
Protocol: The following figures indicate that the use of PLD in combination with ET-743, allows an escalated dose of ET-743 to be tolerated, in comparison to when Doxorubicin is used. A phase I dose escalation study of Doxorubicin (60 mg/m^2) in combination with ET-743, administered over 3 hours, could only support a ET-743 dose of 0.7 mg/m^2. In a Phase I dose escalation study of 30 mg/m^2 PLD in combination with ET-743 administered over 3 hours, ET-743 could be escalated to 1.1 mg/m^2.

[5] = Phase I trial combining PLD and trabectedin: MTD, safety, drug-related adverse events; type: in vivo, human
Protocol: as §1, §2
Entry-criteria included normal liver function tests, limited prior, doxorubicin-exposure (dose less than 250 mg/m^2), normal cardiac function and Eastern Cooperative Oncology Group (ECOG) Performance Status (PS) score of 0 or 1.
Worst on-treatment drug related grade 3 and 4 toxicities have been minimal, limited to neutropenia and transaminases elevation. Tables 5a and 5b show the frequently reported drug-related Grade ¾ adverse events in least 5% of subjects. The adverse events reported at any time from first treatment dose up to 30 days after the last treatment dose are included. In order to define the toxicity grade, NCI common criteria are used.
In addition, Tables 6a and 6b show the drug-related serious adverse events reported.
Out of 18 subjects that discontinued treatment only one subject terminated treatment due to drug related adverse event (Tables 7a and 7b).

cancer = test: Phase I trial combining PLD and trabectedin: best overall response; type: in vivo, human; details: for Best Overall Response: SD (patients, tumour type): stable disease > 3 months
Protocol: as §1, §2
Thirty patients, 14 with sarcomas, 2 with ovarian cancer, 2 with pancreatic cancer, 2 with head and neck carcinoma, 1 with bladder cancer, 1 with breast cancer, 1 with gastric cancer, 1 with NSCLC, 1 with SCLC and 5 more with other types of cancers have been treated (Table 1).
Fourteen (14) additional patients (five with sarcoma, and one each carcinoid tumor, pancreatic, bladder, head and neck, thyroid, breast, gastric, SCLC and ovarian cancer) have had stable disease for > 3 months (Table 8a and 8b).

[6] = increase in plasma liver enzymes, cholangitis; cited from earlier work
[7] = high-dose dexamethasone pretreatment, female rat; cited from earlier work
[8] = ET-743 0.9 mg/m^2 3 hours infusion after PLD 30 mg/m^2 1 hour infusion, N 3
[9] = ET-743 1.1 mg/m^2 3 hours infusion after PLD 30 mg/m^2 1 hour infusion, N 3
[10] = ET-743 1.3 mg/m^2 3 hours infusion after PLD 30 mg/m^2 1 hour infusion, N 2
[11] = ET743 0.4 mg/m^2 + PLD 30 mg/m^2, N = 3
[12] = ET743 0.6 mg/m^2 + PLD 30 mg/m^2, N = 3
[13] = ET743 0.75 mg/m^2 + PLD 30 mg/m^2, N = 3
[14] = ET743 0.9 mg/m^2 + PLD 30 mg/m^2, N = 3
[15] = ET743 1.1 mg/m^2 + PLD 30 mg/m^2, N = 12
[16] = ET743 1.3 mg/m^2 + PLD 30 mg/m^2, N = 6
[17] = Total, all ET743 dose levels + PLD 30 mg/m^2, N = 30

## COc1cc2c(cc1O)CCN[C@]21CS[C@@H]2c3c(OC(C)=O)c(C)c4c(c3[C@H](COC1=O)N1[C@@H]2[C@H]2c3c(cc(C)c(OC)c3O)C[C@@H]([C@@H]1O)N2C)OCO4 [ET743, Ecteinascidin 743]
Human tumour xenografts
  antineoplastic activity: potent antineoplastic activity
[1]
  clinical responses: promising responses were observed
[2]
  side effects: myelotoxic and hepatotoxic side effects
[3]; [8]
  AUC∞: 0.039 µg·h/mL
  Cl: 23 l/h/m2
  Cmax: 6 ng/mL
  T1/2: 93 h
[3]; [9]
  AUC∞: 0.042 µg·h/mL
  Cl: 26 l/h/m2
  Cmax: 6 ng/mL
  T1/2: 65 h
[3]; [10]
  AUC∞: 0.031 µg·h/mL
  Cl: 44 l/h/m2
  Cmax: 7 ng/mL
  T1/2: 47 h
[3]
  Impact of concomitant PLD on the pharmacokinetics of trabectedin: does not have an impact
[3]; listed as trabectidin
  Impact of concomitant PLD on the pharmacokinetics of trabectedin: overtly not impacted
[4]
  ET-743 dose that could be supported in dose escalation: 0.7 mg/m^2
[5]; [11]
  Drug related serious adverse events, subjects: Nausea/Vomiting: 0
  Grade 3/4 drug-related AE, subjects: Allergic Reaction: 0
  Grade 3/4 drug-related AE, subjects: Liver and Biliary System: 0
  Grade 3/4 drug-related AE, subjects: Nausea: 0
  Grade 3/4 drug-related AE, subjects: Other: 0
  Grade 3/4 drug-related AE, subjects: Palmar-Plantar Erythrodysesthesia: 0
  Grade 3/4 drug-related AE, subjects: SGOT Increased: 0
  Grade 3/4 drug-related AE, subjects: SGPT Increased: 0
  Total no. subjects with Grade 3/4 drug-related AE: 0
  Total no. subjects with SAE (drug related serious adverse events): 0
  Treatment termination, subjects: Death: 0
  Treatment termination, subjects: Drug-Related AE (hand-foot syndrome): 0
[5]; [12]
  Drug related serious adverse events, subjects: Nausea/Vomiting: 0
  Grade 3/4 drug-related AE, subjects: Allergic Reaction: 0
  Grade 3/4 drug-related AE, subjects: Liver and Biliary System: 0
  Grade 3/4 drug-related AE, subjects: Nausea: 1
  Grade 3/4 drug-related AE, subjects: Other: 1
  Grade 3/4 drug-related AE, subjects: Palmar-Plantar Erythrodysesthesia: 0
  Grade 3/4 drug-related AE, subjects: SGOT Increased: 0
  Grade 3/4 drug-related AE, subjects: SGPT Increased: 0
  Total no. subjects with Grade 3/4 drug-related AE: 1
  Total no. subjects with SAE (drug related serious adverse events): 0
  Treatment termination, subjects: Death: 0
  Treatment termination, subjects: Drug-Related AE (hand-foot syndrome): 0
[5]; [13]
  Drug related serious adverse events, subjects: Nausea/Vomiting: 0
  Grade 3/4 drug-related AE, subjects: Allergic Reaction: 0
  Grade 3/4 drug-related AE, subjects: Liver and Biliary System: 0
  Grade 3/4 drug-related AE, subjects: Nausea: 0
  Grade 3/4 drug-related AE, subjects: Other: 0
  Grade 3/4 drug-related AE, subjects: Palmar-Plantar Erythrodysesthesia: 0
  Grade 3/4 drug-related AE, subjects: SGOT Increased: 0
  Grade 3/4 drug-related AE, subjects: SGPT Increased: 0
  Total no. subjects with Grade 3/4 drug-related AE: 0
  Total no. subjects with SAE (drug related serious adverse events): 0
  Treatment termination, subjects: Death: 0
  Treatment termination, subjects: Drug-Related AE (hand-foot syndrome): 0
[5]; [14]
  Drug related serious adverse events, subjects: Nausea/Vomiting: 0
  Grade 3/4 drug-related AE, subjects: Allergic Reaction: 0
  Grade 3/4 drug-related AE, subjects: Liver and Biliary System: 0
  Grade 3/4 drug-related AE, subjects: Nausea: 0
  Grade 3/4 drug-related AE, subjects: Other: 0
  Grade 3/4 drug-related AE, subjects: Palmar-Plantar Erythrodysesthesia: 0
  Grade 3/4 drug-related AE, subjects: SGOT Increased: 0
  Grade 3/4 drug-related AE, subjects: SGPT Increased: 0
  Total no. subjects with Grade 3/4 drug-related AE: 0
  Total no. subjects with SAE (drug related serious adverse events): 0
  Treatment termination, subjects: Death: 0
  Treatment termination, subjects: Drug-Related AE (hand-foot syndrome): 0
[5]; [15]
  Drug related serious adverse events, subjects: Nausea/Vomiting: 1
  Grade 3/4 drug-related AE, subjects: Allergic Reaction: 2
  Grade 3/4 drug-related AE, subjects: Liver and Biliary System: 6
  Grade 3/4 drug-related AE, subjects: Nausea: 1
  Grade 3/4 drug-related AE, subjects: Other: 4
  Grade 3/4 drug-related AE, subjects: Palmar-Plantar Erythrodysesthesia: 2
  Grade 3/4 drug-related AE, subjects: SGOT Increased: 1
  Grade 3/4 drug-related AE, subjects: SGPT Increased: 6
  Total no. subjects with Grade 3/4 drug-related AE: 10
  Total no. subjects with SAE (drug related serious adverse events): 1
  Treatment termination, subjects: Death: 0
  Treatment termination, subjects: Drug-Related AE (hand-foot syndrome): 1
[5]; [16]
  Drug related serious adverse events, subjects: Nausea/Vomiting: 0
  Grade 3/4 drug-related AE, subjects: Allergic Reaction: 0
  Grade 3/4 drug-related AE, subjects: Liver and Biliary System: 3
  Grade 3/4 drug-related AE, subjects: Nausea: 0
  Grade 3/4 drug-related AE, subjects: Other: 2
  Grade 3/4 drug-related AE, subjects: Palmar-Plantar Erythrodysesthesia: 2
  Grade 3/4 drug-related AE, subjects: SGOT Increased: 2*
  Grade 3/4 drug-related AE, subjects: SGPT Increased: 3*
  Total no. subjects with Grade 3/4 drug-related AE: 6
  Total no. subjects with SAE (drug related serious adverse events): 0
  Treatment termination, subjects: Death: 1
  Treatment termination, subjects: Drug-Related AE (hand-foot syndrome): 0
[5]; [17]
  Grade 3/4 drug-related AE, subjects: Allergic Reaction: 2
  Grade 3/4 drug-related AE, subjects: Liver and Biliary System: 9
  Grade 3/4 drug-related AE, subjects: Nausea: 2
  Grade 3/4 drug-related AE, subjects: Other: 7
  Grade 3/4 drug-related AE, subjects: Palmar-Plantar Erythrodysesthesia: 4
  Grade 3/4 drug-related AE, subjects: SGOT Increased: 3
  Grade 3/4 drug-related AE, subjects: SGPT Increased: 9
  Total no. subjects with Grade 3/4 drug-related AE: 17
  Total no. subjects with SAE (drug related serious adverse events): 1
  Treatment termination, subjects: Death: 1
  Treatment termination, subjects: Drug-Related AE (hand-foot syndrome): 1
[5]; both drugs at full (or near full) therapeutic doses for prolonged periods
  Tolerability of the combination: well tolerated
[5]; in combination with 30 mg/m^2 PLD, ET-743 over 3 hours
  ET-743 dose reached in dose escalation: 1.1 mg/m^2
[5]; in combination with PLD 30 mg/m^2, every 21 days, ET-743 i.v. over 3 hours
  maximum tolerated dose (MTD): 1.1 mg/m^2
[5]; plus 30 mg/m^2 of PLD
  recommended dose of the combination treatment: 1.1 mg/m^2
cancer; [11]
  Best Overall Response: PR (patients, tumour type): 1 Sarcoma
  Treatment termination, subjects: Disease Progression: 2
cancer; [12]
  Best Overall Response: PR (patients, tumour type): 0
  Treatment termination, subjects: Disease Progression: 1
cancer; [13]
  Best Overall Response: PR (patients, tumour type): 0
  Treatment termination, subjects: Disease Progression: 2
  Best Overall Response: SD (patients, tumour type): 1 Thyroid
cancer; [14]
  Best Overall Response: PR (patients, tumour type): 0
  Treatment termination, subjects: Disease Progression: 3
  Best Overall Response: SD (patients, tumour type): 0
cancer; [15]
  Best Overall Response: PR (patients, tumour type): 1 Sarcoma
  Treatment termination, subjects: Disease Progression: 5
cancer; [16]
  Treatment termination, subjects: Disease Progression: 2
cancer; ET-743 together with PLD, soft tissue sarcoma, ovarian and head and neck cancer
  Clinical benefit (measurable responses): measurable responses demonstrated evidence of clinical benefit
cancer; [17]
  Treatment termination, subjects: Disease Progression: 15
[6]
  acute toxicity finding: liver toxicity as an important side effect

## C[C@@H]1C[C@H]2[C@@H]3CCC4=CC(=O)C=C[C@]4(C)[C@@]3(F)[C@@H](O)C[C@]2(C)[C@@]1(O)C(=O)CO [dexamethasone]
[7]
  effect of pretreatment on ET-743 hepatotoxicity: abrogate ET-743-mediated hepatotoxicity
